According to PubChem BioAssay (NCI):
“And” between values parts separate entries of the source, which are not always exact repeats. Equal entries are not always repeated.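 All cell lines were grown in 96-well plates and treated with compound for 48 hours. The concentration for 50% growth inhibition is given as GI50. At the TGI there is no net growth.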

Key:
Assay in all cases: NCI-60 cell line screen, 48 h
786-0 renal = system: 786-0 renal
A498 renal = system: A498 renal
A549 NSCLC = system: A549 NSCLC
ACHN renal = system: ACHN renal
BT-549 breast = system: BT-549 breast
CAKI-1 renal = system: CAKI-1 renal
CCRF-CEM leukemia = system: CCRF-CEM leukemia
COLO 205 colon = system: COLO 205 colon
DU-145 prostate = system: DU-145 prostate
EKVX NSCLC = system: EKVX NSCLC
HCC-2998 colon = system: HCC-2998 colon
HCT-116 colon = system: HCT-116 colon
HCT-15 colon = system: HCT-15 colon
HL-60(TB) leukemia = system: HL-60(TB) leukemia
HOP-62 NSCLC = system: HOP-62 NSCLC
HOP-92 NSCLC = system: HOP-92 NSCLC
HS 578T breast = system: HS 578T breast
HT29 colon = system: HT29 colon
IGROV1 ovarian = system: IGROV1 ovarian
K-562 leukemia = system: K-562 leukemia
KM12 colon = system: KM12 colon
LOX IMVI melanoma = system: LOX IMVI melanoma
M14 melanoma = system: M14 melanoma
MALME-3M melanoma = system: MALME-3M melanoma
MCF7 breast = system: MCF7 breast
MDA-MB-231 breast = system: MDA-MB-231 breast
MDA-MB-435 = system: MDA-MB-435
MOLT-4 leukemia = system: MOLT-4 leukemia
NCI-H226 lung = system: NCI-H226 lung
NCI-H23 lung = system: NCI-H23 lung
NCI-H460 lung = system: NCI-H460 lung
NCI-H522 lung = system: NCI-H522 lung
NCI/ADR-RES ovarian = system: NCI/ADR-RES ovarian
OVCAR-3 ovarian = system: OVCAR-3 ovarian
OVCAR-4 ovarian = system: OVCAR-4 ovarian
OVCAR-5 ovarian = system: OVCAR-5 ovarian
OVCAR-8 ovarian = system: OVCAR-8 ovarian
PC-3 prostate = system: PC-3 prostate
RPMI-8226 leukemia = system: RPMI-8226 leukemia
RXF 393 renal = system: RXF 393 renal
SF-268 CNS = system: SF-268 CNS
SF-295 CNS = system: SF-295 CNS
SF-539 CNS = system: SF-539 CNS
SK-MEL-2 melanoma = system: SK-MEL-2 melanoma
SK-MEL-28 melanoma = system: SK-MEL-28 melanoma
SK-MEL-5 melanoma = system: SK-MEL-5 melanoma
SK-OV-3 ovarian = system: SK-OV-3 ovarian
SN12C renal = system: SN12C renal
SNB-19 CNS = system: SNB-19 CNS
SNB-75 CNS = system: SNB-75 CNS
SR leukemia = system: SR leukemia
SW-620 colon = system: SW-620 colon
T-47D breast = system: T-47D breast
TK-10 renal = system: TK-10 renal
U251 CNS = system: U251 CNS
UACC-257 melanoma = system: UACC-257 melanoma
UACC-62 melanoma = system: UACC-62 melanoma
UO-31 renal = system: UO-31 renal

In the case of N#CCNC(=O)c1ccc(-c2ccnc(Nc3ccc(N4CCOCC4)cc3)n2)cc1, the GI50 (786-0 renal) is reported as 1.56 µM and 1.26 µM, the TGI (786-0 renal) is reported as > 10 µM and 13.1 µM and the GI50 (A498 renal) is reported as 2.35 µM and 1.91 µM. For the same compound, the TGI (A498 renal) was 8.73 µM and 7.66 µM, the GI50 (A549 NSCLC) was 4.47 µM and 1.75 µM and the TGI (A549 NSCLC) was > 10 µM and 12.4 µM. The GI50 (ACHN renal) was 1.35 µM and 0.531 µM, the TGI (ACHN renal) was > 37.1 µM and the GI50 (BT-549 breast) was 2.24 µM and 1.54 µM. For the same compound, the TGI (BT-549 breast) was > 10 µM and 5.8 µM, the GI50 (CAKI-1 renal) was 0.513 µM and 0.273 µM and the TGI (CAKI-1 renal) was 3.72 µM and 3.03 µM. The GI50 (CCRF-CEM leukemia) was 2.5 µM and 2.51 µM, the TGI (CCRF-CEM leukemia) was > 30 µM and the GI50 (COLO 205 colon) was 3.17 µM and 2.96 µM. The TGI (COLO 205 colon) was > 31.5 µM, the GI50 (DU-145 prostate) was 2.62 µM and 1.65 µM and the TGI (DU-145 prostate) was > 100 µM. For the same compound, the GI50 (EKVX NSCLC) was > 10 µM, the TGI (EKVX NSCLC) was > 10 µM and the GI50 (HCC-2998 colon) was > 10 µM and 3.98 µM. For the same compound, the TGI (HCC-2998 colon) was > 10 µM and 47.4 µM, the GI50 (HCT-116 colon) was 1.49 µM and 1.19 µM and the TGI (HCT-116 colon) was > 24.8 µM. For the same compound, the GI50 (HCT-15 colon) was 3.1 µM and 2.3 µM, the TGI (HCT-15 colon) was > 100 µM and the GI50 (HL-60(TB) leukemia) was 4.79 µM and 3.14 µM. The TGI (HL-60(TB) leukemia) was > 100 µM, the GI50 (HOP-62 NSCLC) was 1.88 µM and 2.12 µM and the TGI (HOP-62 NSCLC) was > 10 µM and 16.4 µM. The GI50 (HOP-92 NSCLC) was 0.511 µM and 0.153 µM, the TGI (HOP-92 NSCLC) was 9.61 µM and 10.7 µM and the GI50 (HS 578T breast) was 0.506 µM and 0.42 µM. For the same compound, the TGI (HS 578T breast) was 4.86 µM and 12.9 µM, the GI50 (HT29 colon) was 5.71 µM and 5.38 µM and the TGI (HT29 colon) was > 100 µM. For the same compound, the GI50 (IGROV1 ovarian) was 1.69 µM and 1.24 µM, the TGI (IGROV1 ovarian) was > 10 µM and 20.3 µM and the TGI (K-562 leukemia) was > 100 µM. The GI50 (KM12 colon) was 3.23 µM and 3.85 µM, the TGI (KM12 colon) was > 74 µM and the GI50 (LOX IMVI melanoma) was 1.74 µM and 1.35 µM. For the same compound, the TGI (LOX IMVI melanoma) was > 44.9 µM, the GI50 (M14 melanoma) was 4.47 µM and 4.29 µM and the TGI (M14 melanoma) was > 100 µM. For the same compound, the GI50 (MALME-3M melanoma) was 6.44 µM and 1.26 µM, the TGI (MALME-3M melanoma) was > 10 µM and 18.1 µM and the GI50 (MCF7 breast) was 1.78 µM and 1.54 µM. For the same compound, the TGI (MCF7 breast) was > 10 µM and 21.4 µM, the GI50 (MDA-MB-231 breast) was 2.26 µM and 2.19 µM and the TGI (MDA-MB-231 breast) was > 100 µM. The GI50 (MDA-MB-435) was 4.75 µM and 2.82 µM, the TGI (MDA-MB-435) was > 100 µM and the GI50 (MOLT-4 leukemia) was 2.78 µM and 2.6 µM. For the same compound, the TGI (MOLT-4 leukemia) was > 100 µM, the GI50 (NCI-H226 lung) was 0.754 µM and 0.531 µM and the TGI (NCI-H226 lung) was 7.01 µM and 21.1 µM. For the same compound, the GI50 (NCI-H23 lung) was 2.71 µM and 1.87 µM, the TGI (NCI-H23 lung) was > 10 µM and 38.4 µM and the GI50 (NCI-H460 lung) was 2.5 µM and 1.36 µM. For the same compound, the TGI (NCI-H460 lung) was > 10 µM and 11.3 µM, the GI50 (NCI-H522 lung) was 1.22 µM and 0.713 µM and the TGI (NCI-H522 lung) was > 10 µM and 21.5 µM. For the same compound, the GI50 (NCI/ADR-RES ovarian) was > 10 µM and 12.4 µM, the TGI (NCI/ADR-RES ovarian) was > 100 µM and the GI50 (OVCAR-3 ovarian) was 7.77 µM and 5.78 µM. For the same compound, the TGI (OVCAR-3 ovarian) was > 10 µM and 46.6 µM, the GI50 (OVCAR-4 ovarian) was 5.94 µM and 13.3 µM and the TGI (OVCAR-4 ovarian) was > 10 µM and 44.9 µM. The GI50 (OVCAR-5 ovarian) was 3.43 µM and 4.07 µM, the TGI (OVCAR-5 ovarian) was > 54.4 µM and the GI50 (OVCAR-8 ovarian) was 4.26 µM and 3.16 µM. For the same compound, the TGI (OVCAR-8 ovarian) was > 73.6 µM, the GI50 (PC-3 prostate) was 3.77 µM and 1.77 µM and the TGI (PC-3 prostate) was > 10 µM and 38.8 µM. For the same compound, the GI50 (RPMI-8226 leukemia) was 3.08 µM and 2.88 µM, the TGI (RPMI-8226 leukemia) was > 31.9 µM and the GI50 (RXF 393 renal) was 1.11 µM and 0.345 µM. For the same compound, the TGI (RXF 393 renal) was 3.09 µM and 1.7 µM, the GI50 (SF-268 CNS) was 1.78 µM and 1.41 µM and the TGI (SF-268 CNS) was > 10 µM and 17.7 µM. For the same compound, the GI50 (SF-295 CNS) was 4.56 µM and 1.94 µM, the TGI (SF-295 CNS) was > 10 µM and 16.6 µM and the GI50 (SF-539 CNS) was 2.29 µM and 1.14 µM. The TGI (SF-539 CNS) was > 10 µM and 10.4 µM, the GI50 (SK-MEL-2 melanoma) was 3.97 µM and 2.48 µM and the TGI (SK-MEL-2 melanoma) was > 10 µM and 19 µM. The GI50 (SK-MEL-28 melanoma) was 4.49 µM and 2.56 µM, the TGI (SK-MEL-28 melanoma) was > 10 µM and 20.3 µM and the GI50 (SK-MEL-5 melanoma) was 4.61 µM. For the same compound, the TGI (SK-MEL-5 melanoma) was 38.7 µM, the GI50 (SK-OV-3 ovarian) was 4.04 µM and 3.83 µM and the TGI (SK-OV-3 ovarian) was > 10 µM and 24.7 µM. The GI50 (SN12C renal) was 2.73 µM and 0.992 µM, the TGI (SN12C renal) was > 100 µM and the GI50 (SNB-19 CNS) was 7.23 µM and 10.2 µM. The TGI (SNB-19 CNS) was > 10 µM and 78.4 µM, the GI50 (SNB-75 CNS) was 0.621 µM and 0.186 µM and the TGI (SNB-75 CNS) was 5.6 µM and 4.17 µM. The GI50 (SR leukemia) was 0.498 µM and 0.458 µM, the TGI (SR leukemia) was 3.88 µM and 5.47 µM and the GI50 (SW-620 colon) was 3.97 µM and 3.46 µM. The TGI (SW-620 colon) was > 100 µM, the GI50 (T-47D breast) was > 10 µM and 9.94 µM and the TGI (T-47D breast) was > 10 µM and 99.8 µM. The GI50 (TK-10 renal) was 0.873 µM and 0.607 µM, the TGI (TK-10 renal) was 8.31 µM and 4.58 µM and the GI50 (U251 CNS) was 3.46 µM and 1.79 µM. For the same compound, the TGI (U251 CNS) was > 10 µM and 34.8 µM, the GI50 (UACC-257 melanoma) was > 10 µM and 4.39 µM and the TGI (UACC-257 melanoma) was > 100 µM. For the same compound, the GI50 (UACC-62 melanoma) was 4.44 µM and 3.66 µM, the TGI (UACC-62 melanoma) was > 57.8 µM and the GI50 (UO-31 renal) was 1.1 µM and 0.36 µM. For the same compound, the TGI (UO-31 renal) was 4.19 µM and 3.4 µM.
